Experiments:
[1] = 102 kPa, Liquid, Vibrating tube method
[2] = mn = molality of the nth substance listed, in mol/kg; details: 102 kPa, Liquid, Vibrating tube method
[3] = xn = mol fraction of the nth substance listed; details: 102 kPa, Liquid, Vibrating tube method

CO [methanol]
[1]
Details	mass density [kg/m3]
293.15 K	791.34
298.15 K	786.68
303.15 K	781.96
308.15 K	777.21

[Cd+2].[I-].[I-] [cadmium iodide (CdI2)] + CCCCO
mass density [kg/m3], [2]
Details	m1 = 0.004	m1 = 0.005	m1 = 0.006	m1 = 0.008	m1 = 0.01	m1 = 0.02	m1 = 0.05	m1 = 0.08
293.15 K	811.57	811.75	811.98	812.48	813.03	815.24	822.26	830.17
298.15 K	807.62	807.92	808.19	808.94	809.67	811.39	819.27	826.26
303.15 K	803.74	804.06	804.49	805.19	805.87	807.51	814.48	822.32
308.15 K	799.64	800.2	800.59	801.3	802.1	803.62	810.6	818.39

CO [methanol] + CCCCO
[3], x2 = 0
Details	mass density [kg/m3]
293.15 K	791.34
298.15 K	786.68
303.15 K	781.96
308.15 K	777.21

CCCCO [butan-1-ol] + CO
mass density [kg/m3], [3]
Details	293.15 K	298.15 K	303.15 K	308.15 K
x1 = 0.05	793	788.48	783.92	779.32
x1 = 0.1	794.55	790.15	785.69	781.19
x1 = 0.15	795.82	791.52	787.15	782.74
x1 = 0.2	797.09	792.81	788.52	784.19
x1 = 0.25	798.29	794.06	789.82	785.52
x1 = 0.3	799.4	795.23	791.01	786.78
x1 = 0.4	801.48	797.4	793.26	789.13
x1 = 0.5	803.28	799.27	795.21	791.18
x1 = 0.6	804.87	800.94	796.94	792.99
x1 = 0.7	806.38	802.48	798.57	794.64
x1 = 0.8	807.62	803.77	799.91	796.04
x1 = 0.9	808.83	804.99	801.12	797.29
x1 = 1	809.84	806.03	802.19	798.38

CCCCO [butan-1-ol]
[1]
Details	mass density [kg/m3]
293.15 K	809.84
298.15 K	806.03
303.15 K	802.19
308.15 K	798.38

[Cd+2].[I-].[I-] [cadmium iodide (CdI2)] + CO
mass density [kg/m3], [2]
Details	m1 = 0.004	m1 = 0.005	m1 = 0.006	m1 = 0.008	m1 = 0.01	m1 = 0.02	m1 = 0.05	m1 = 0.08
293.15 K	792.58	792.87	793.02	793.63	794.17	797.09	805.07	811.5
298.15 K	787.92	788.22	788.45	789.1	789.72	792.37	800.28	806.75
303.15 K	783.18	783.49	783.71	784.31	784.72	787.65	795.4	801.87
308.15 K	778.43	778.74	778.86	779.43	780.04	782.94	790.79	797.4

Source: the NIST ThermoML archive (doi:10.1021/acs.jced.5b00366)
